Test results: US9139557B2, “Carboxamide compounds and their use as calpain inhibitors” (Abbott GmbH & Co. KG, priority 2006, dated 2015)

What was measured:
Type in all cases: biochemical
cathepsin K = target: T1, cathepsin K (Homo sapiens, UniProt P43235); assay: Cathepsin K enzyme inhibition in vitro (kinetic fluorescence assay); settings: Ki(cathepsin K)/Ki(calpain) ratio
T1 construct: purchased Calbiochem 342001; host or cells: E. coli
T1 sequence (P43235 115-329): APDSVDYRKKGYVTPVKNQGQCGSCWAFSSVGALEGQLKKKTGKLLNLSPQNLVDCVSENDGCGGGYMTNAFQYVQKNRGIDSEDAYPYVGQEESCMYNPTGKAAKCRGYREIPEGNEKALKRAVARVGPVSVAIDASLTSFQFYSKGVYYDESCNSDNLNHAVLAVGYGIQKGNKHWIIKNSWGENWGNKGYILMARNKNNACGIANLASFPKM

cathepsin S = target: T2, cathepsin S (Homo sapiens, UniProt P25774); assay: Cathepsin S enzyme inhibition in vitro (kinetic fluorescence assay); settings: Ki(cathepsin S)/Ki(calpain) ratio
T2 construct: purchased Calbiochem 219343; host or cells: E. coli
T2 sequence (P25774 115-331): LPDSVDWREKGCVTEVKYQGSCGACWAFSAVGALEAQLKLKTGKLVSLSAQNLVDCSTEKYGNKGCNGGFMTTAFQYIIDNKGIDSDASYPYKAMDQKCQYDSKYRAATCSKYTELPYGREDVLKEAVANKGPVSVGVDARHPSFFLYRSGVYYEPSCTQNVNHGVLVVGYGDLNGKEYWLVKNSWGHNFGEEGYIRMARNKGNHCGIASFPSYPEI
Summary of the method: (§1)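 Kinetic fluorescence (ex 390/em 460 nm), room temperature: calpain-I (human erythrocyte, 20 nM) with 100 µM Suc-Leu-Tyr-AMC, imidazole/CaCl2 pH 7.3; cathepsin B (liver, 0.25 nM), 100 µM Z-Phe-Arg-AMC; L (liver, 1 nM), 2 µM Z-Phe-Arg-AMC; S (recombinant, 0.5 nM), 20 µM Z-Val-Val-Arg-AMC; cathepsins in MES/EDTA/cysteine pH 6.0. Apparent Ki via Cheng-Prusoff, 2–4 curves averaged.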

cathepsin L = target: T3, cathepsin L (Homo sapiens, UniProt P07711); assay: Cathepsin L enzyme inhibition in vitro (kinetic fluorescence assay); settings: Ki(cathepsin L)/Ki(calpain) ratio
T3 construct: cathepsin L—isolated from human liver; purchased Calbiochem 219402; host or cells: human liver (tissue isolate)
T3 sequence (P07711 114-333): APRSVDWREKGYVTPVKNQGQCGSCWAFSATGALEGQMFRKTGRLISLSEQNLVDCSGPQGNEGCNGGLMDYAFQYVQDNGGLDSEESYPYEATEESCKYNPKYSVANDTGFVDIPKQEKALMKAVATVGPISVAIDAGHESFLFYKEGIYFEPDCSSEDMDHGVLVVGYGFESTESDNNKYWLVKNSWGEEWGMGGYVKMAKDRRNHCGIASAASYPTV
Summary of the method: as §1

cathepsin B = target: T4, cathepsin B (Homo sapiens, UniProt P07858); assay: Cathepsin B enzyme inhibition in vitro (kinetic fluorescence assay); settings: Ki(cathepsin B)/Ki(calpain) ratio
T4 construct: cathepsin B—isolated from human liver; purchased Calbiochem 219362; host or cells: human liver (tissue isolate)
Summary of the method: as §1

| SMILES | Sel cat. K (cathepsin K) | Sel cat. S (cathepsin S) | Sel cat. L (cathepsin L) | Sel cat. B (cathepsin B) |
| --- | --- | --- | --- | --- |
| NC(=O)C(=O)C(Cc1ccc(Cl)cc1)NC(=O)c1cccnc1-n1ccc(-c2ccc(F)cc2)n1 (stereo not drawn) [Example 67, N-[3-Amino-1-(4-chlorobenzyl)-2,3-dioxopropyl]-2-[3-(4-fluorophenyl)-1H-pyrazol-1-yl]nicotinamide] | + (+ means 10≦Ki(cathepsin K)/Ki(calpain)<30) | ++ (++ means a Ki(cathepsin S)/Ki(calpain) ratio of ≧100) | ++ (++ means a Ki(cathepsin L)/Ki(calpain) ratio of ≧50) | + (+ means 10≦Ki(cathepsin B)/Ki(calpain)<30) |
| NC(=O)C(=O)C(Cc1ccccc1)NC(=O)c1cccnc1-n1cc2c(n1)-c1cccc(Cl)c1OC2 (stereo not drawn) [Example 175, N-[3-Amino-2,3-dioxo-1-(phenylmethyl)propyl]-2-(6-chlorochromeno[4,3-c]pyrazol-2(4H)-yl)pyridine-3-carboxamide] | ++ (++ means a Ki(cathepsin K)/Ki(calpain) ratio of ≧30) | ++ (++ means a Ki(cathepsin S)/Ki(calpain) ratio of ≧100) | ++ (++ means a Ki(cathepsin L)/Ki(calpain) ratio of ≧50) | ++ (++ means a Ki(cathepsin B)/Ki(calpain) ratio of ≧30) |
| NC(=O)C(=O)C(Cc1ccccc1)NC(=O)c1cccnc1-n1ccc(-c2c(F)cccc2F)n1 (stereo not drawn) [Example 85, N-[3-Amino-2,3-dioxo-1-(phenylmethyl)propyl]-2-[3-(2,6-difluorophenyl)-1H-pyrazol-1-yl]pyridine-3-carboxamide] | ++ (++ means a Ki(cathepsin K)/Ki(calpain) ratio of ≧30) | ++ (++ means a Ki(cathepsin S)/Ki(calpain) ratio of ≧100) | ++ (++ means a Ki(cathepsin L)/Ki(calpain) ratio of ≧50) | + (+ means 10≦Ki(cathepsin B)/Ki(calpain)<30) |
| NC(=O)C(=O)C(Cc1cccc(F)c1)NC(=O)c1cccnc1-n1ccc(-c2ccccc2OC(F)(F)F)n1 (stereo not drawn) [Example 162, N-{3-Amino-1-[(3-fluorophenyl)methyl]-2,3-dioxopropyl}-2-(3-{2-[(trifluoromethyl)oxy]phenyl}-1H-pyrazol-1-yl)pyridine-3-carboxamide] | ++ (++ means a Ki(cathepsin K)/Ki(calpain) ratio of ≧30) | ++ (++ means a Ki(cathepsin S)/Ki(calpain) ratio of ≧100) | ++ (++ means a Ki(cathepsin L)/Ki(calpain) ratio of ≧50) | ++ (++ means a Ki(cathepsin B)/Ki(calpain) ratio of ≧30) |
| NC(=O)C(=O)C(Cc1ccccc1)NC(=O)c1cccnc1-n1ccc(-c2cc(C(F)(F)F)ccc2CN2CCOCC2)n1 (stereo not drawn) [Example 163, N-[3-Amino-2,3-dioxo-1-(phenylmethyl)propyl]-2-{3-[2-(morpholin-4-ylmethyl)-5-(trifluoromethyl)phenyl]-1H-pyrazol-1-yl}pyridine-3-carboxamide] | + (+ means 10≦Ki(cathepsin K)/Ki(calpain)<30) | ++ (++ means a Ki(cathepsin S)/Ki(calpain) ratio of ≧100) | + (+ means 30≦Ki(cathepsin L)/Ki(calpain)<50) | + (+ means 10≦Ki(cathepsin B)/Ki(calpain)<30) |
| COc1c(C)cc(C)cc1-c1ccn(-c2ncccc2C(=O)NC(Cc2ccccc2)C(=O)C(N)=O)n1 (stereo not drawn) [Example 121, N-[3-Amino-2,3-dioxo-1-(phenylmethyl)propyl]-2-{3-[3,5-dimethyl-2-(methyloxy)phenyl]-1H-pyrazol-1-yl}pyridine-3-carboxamide] | ++ (++ means a Ki(cathepsin K)/Ki(calpain) ratio of ≧30) | ++ (++ means a Ki(cathepsin S)/Ki(calpain) ratio of ≧100) | ++ (++ means a Ki(cathepsin L)/Ki(calpain) ratio of ≧50) | ++ (++ means a Ki(cathepsin B)/Ki(calpain) ratio of ≧30) |
| COc1ccc(CC(NC(=O)c2cccnc2-n2ccc(-c3ccccc3)n2)C(=O)C(N)=O)cc1 (stereo not drawn) [Example 80, N-[3-Amino-1-(4-methoxybenzyl)-2,3-dioxopropyl]-2-(3-phenyl-1H-pyrazol-1-yl)nicotinamide] | + (+ means 10≦Ki(cathepsin K)/Ki(calpain)<30) | ++ (++ means a Ki(cathepsin S)/Ki(calpain) ratio of ≧100) | ++ (++ means a Ki(cathepsin L)/Ki(calpain) ratio of ≧50) | ++ (++ means a Ki(cathepsin B)/Ki(calpain) ratio of ≧30) |
| NC(=O)C(=O)C(Cc1ccccc1)NC(=O)c1cccnc1-n1cc2c(n1)-c1ccccc1OC2 (stereo not drawn) [Example 100, N-[3-Amino-2,3-dioxo-1-(phenylmethyl)propyl]-2-chromeno[4,3-c]pyrazol-2(4H)-ylpyridine-3-carboxamide] | ++ (++ means a Ki(cathepsin K)/Ki(calpain) ratio of ≧30) | ++ (++ means a Ki(cathepsin S)/Ki(calpain) ratio of ≧100) | ++ (++ means a Ki(cathepsin L)/Ki(calpain) ratio of ≧50) | + (+ means 10≦Ki(cathepsin B)/Ki(calpain)<30) |
| NC(=O)C(=O)C(Cc1ccccc1)NC(=O)c1cccnc1-n1ccc(-c2ccccn2)n1 (stereo not drawn) [Example 35, N-(3-Amino-1-benzyl-2,3-dioxopropyl)-2-(3-pyridin-2-yl-1H-pyrazol-1-yl)nicotinamide] | + (+ means 10≦Ki(cathepsin K)/Ki(calpain)<30) | ++ (++ means a Ki(cathepsin S)/Ki(calpain) ratio of ≧100) | ++ (++ means a Ki(cathepsin L)/Ki(calpain) ratio of ≧50) | + (+ means 10≦Ki(cathepsin B)/Ki(calpain)<30) |
| COc1cc(F)ccc1-c1ccn(-c2ncccc2C(=O)NC(Cc2ccccc2)C(=O)C(N)=O)n1 (stereo not drawn) [Example 125, N-[3-Amino-2,3-dioxo-1-(phenylmethyl)propyl]-2-{3-[4-fluoro-2-(methyloxy)phenyl]-1H-pyrazol-1-yl}pyridine-3-carboxamide] | ++ (++ means a Ki(cathepsin K)/Ki(calpain) ratio of ≧30) | ++ (++ means a Ki(cathepsin S)/Ki(calpain) ratio of ≧100) | ++ (++ means a Ki(cathepsin L)/Ki(calpain) ratio of ≧50) | ++ (++ means a Ki(cathepsin B)/Ki(calpain) ratio of ≧30) |
| COc1ccc(CC(NC(=O)c2cccnc2-n2ccc(-c3ccc(F)cc3OC)n2)C(=O)C(N)=O)cc1 (stereo not drawn) [Example 136, N-(3-Amino-1-{[4-(methyloxy)phenyl]methyl}-2,3-dioxopropyl)-2-{3-[4-fluoro-2-(methyloxy)phenyl]-1H-pyrazol-1-yl}pyridine-3-carboxamide] | ++ (++ means a Ki(cathepsin K)/Ki(calpain) ratio of ≧30) | ++ (++ means a Ki(cathepsin S)/Ki(calpain) ratio of ≧100) | ++ (++ means a Ki(cathepsin L)/Ki(calpain) ratio of ≧50) | ++ (++ means a Ki(cathepsin B)/Ki(calpain) ratio of ≧30) |
| Cc1ccccc1-c1ccn(-c2ncccc2C(=O)NC(Cc2ccccc2)C(=O)C(N)=O)n1 (stereo not drawn) [Example 93, N-[3-Amino-2,3-dioxo-1-(phenylmethyl)propyl]-2-[3-(2-methylphenyl)-1H-pyrazol-1-yl]pyridine-3-carboxamide] | + (+ means 10≦Ki(cathepsin K)/Ki(calpain)<30) | ++ (++ means a Ki(cathepsin S)/Ki(calpain) ratio of ≧100) | ++ (++ means a Ki(cathepsin L)/Ki(calpain) ratio of ≧50) | ++ (++ means a Ki(cathepsin B)/Ki(calpain) ratio of ≧30) |
| CS(=O)(=O)Nc1cnc(-n2ccc(-c3ccccc3)n2)c(C(=O)NC(Cc2ccccc2)C(=O)C(N)=O)c1 (stereo not drawn) [Example 158, N-[3-Amino-2,3-dioxo-1-(phenylmethyl)propyl]-5-[(methylsulfonyl)amino]-2-(3-phenyl-1H-pyrazol-1-yl)pyridine-3-carboxamide] | ++ (++ means a Ki(cathepsin K)/Ki(calpain) ratio of ≧30) | ++ (++ means a Ki(cathepsin S)/Ki(calpain) ratio of ≧100) | ++ (++ means a Ki(cathepsin L)/Ki(calpain) ratio of ≧50) | ++ (++ means a Ki(cathepsin B)/Ki(calpain) ratio of ≧30) |
| NC(=O)C(=O)C(Cc1ccc(F)cc1)NC(=O)c1cccnc1-n1ccc(-c2ccccc2)n1 (stereo not drawn) [Example 123, N-{3-Amino-1-[(4-fluorophenyl)methyl]-2,3-dioxopropyl}-2-(3-phenyl-1H-pyrazol-1-yl)pyridine-3-carboxamide] | ++ (++ means a Ki(cathepsin K)/Ki(calpain) ratio of ≧30) | ++ (++ means a Ki(cathepsin S)/Ki(calpain) ratio of ≧100) | ++ (++ means a Ki(cathepsin L)/Ki(calpain) ratio of ≧50) | ++ (++ means a Ki(cathepsin B)/Ki(calpain) ratio of ≧30) |
| NC(=O)C(=O)C(Cc1ccc(OC(F)(F)F)cc1)NC(=O)c1cccnc1-n1ccc(-c2cccc(C(F)(F)F)c2)n1 (stereo not drawn) [Example 134, N-[3-Amino-2,3-dioxo-1-({4-[(trifluoromethyl)oxy]phenyl}methyl)propyl]-2-{3-[3-(trifluoromethyl)phenyl]-1H-pyrazol-1-yl}pyridine-3-carboxamide] | ++ (++ means a Ki(cathepsin K)/Ki(calpain) ratio of ≧30) | + (+ means 50≦Ki(cathepsin S)/Ki(calpain)<100) | + (+ means 30≦Ki(cathepsin L)/Ki(calpain)<50) | ++ (++ means a Ki(cathepsin B)/Ki(calpain) ratio of ≧30) |
